According to paper PMC5749684, “Tetrahydrocarbazoles are a novel class of potent P-type ATPase inhibitors with antifungal activity” (PLoS ONE, 2018):
In brackets after ≈: the same amount, converted by molar mass. Several values for one entry are separate records, joined by “and”; a condition that tells them apart may be missing. Identical values can stand only once. Entries after “also recorded” stand apart in the source; their conditions may differ.

What was measured:
[1] = target: T1, Mammalian Na^+,K^+-ATPase (Sus scrofa, UniProt P05024); assay: ATP hydrolysis inhibition, Na+,K+-ATPase; type: biochemical; conditions: pig Na+,K+-ATPase, racemic compounds, n = 3
T1 construct: The pig kidney Na^+,K^+-ATPase purification included a mild SDS treatment of isolated microsomes; from tissue; host or cells: pig kidney microsomes, SDS-treated
Text: All membrane batches were validated by determining ATPase activity, pH optimum and orthovanadate sensitivity. Sarco/endoplasmatic reticulum (SR) Ca^2+ ATPase was provided in SR membranes purified by extraction with a low concentration of deoxycholate (DOC) and was kindly provided by Claus E. Olesen and Jesper V. Møller, Aarhus University and prepared as described in [43]. The pig kidney Na^+,K^+-ATPase purification included a mild SDS treatment of isolated microsomes followed by a washing step and was kindly provided by Natalya Fedosova, Aarhus University and prepared as described in [44].
(§1) ATPase activity was determined by measuring the amount of liberated phosphate from ATP hydrolysis. The ATPase assay was performed in 96 well plates in a final reaction volume of 60 μL. 0.1–0.2 μg/well of DOC extracted SERCA membrane or the Na^+,K^+-ATPase was used, while 1–2.5 μg/well was used of the Pma1 membrane preparation. Reactions, including protein membrane preparation and various concentrations of exogenously added compounds, were conducted in the following buffers; Pma1 buffer: 17.5 mM MOPS-NaOH pH 7, 7 mM MgSO4, 44 mM KNO3 (vacuolar ATPase inhibitor), 22 mM NaN3 (mitochondrial ATPase inhibitor), 0.22 mM Na2MoO4 (acid phosphatase inhibitor); SERCA buffer: 9 mM MOPS-NaOH pH 7, 2.7 mM MgCl2, 0.1 mM CaCl2 and 72 mM KCl. Na^+,K^+-ATPase buffer: 30 mM MOPS-NaOH pH 7, 40 mM NaCl, 4 mM MgCl2 and 20 mM KCl. Reactions were initiated by the addition of Na-ATP to a final concentration of 2.5 mM (Pma1 and Na^+,K^+-ATPase) or 5 mM (SERCA), followed by 30 minutes incubation at 30°C. […] Absorption was measured at 860 nm after additional 30 minutes incubation at RT.

[2] = target: T2, Saccharomyces cerevisiae Pma1 (Saccharomyces cerevisiae, UniProt P05030); assay: ATP hydrolysis inhibition, S. cerevisiae Pma1; type: biochemical; conditions: for Pma1 inhibition (in words): Pma1 species not specified; for Selectivity among P-type ATPases (in words): Pma1 versus SERCA and Na+,K+-ATPase
T2 construct: containing the full-length cDNA of the S. cerevisiae plasma membrane H^+-ATPase isoform PMA1; made in house; host or cells: Saccharomyces cerevisiae RS72
T2 sequence (P05030 whole entry, canonical isoform): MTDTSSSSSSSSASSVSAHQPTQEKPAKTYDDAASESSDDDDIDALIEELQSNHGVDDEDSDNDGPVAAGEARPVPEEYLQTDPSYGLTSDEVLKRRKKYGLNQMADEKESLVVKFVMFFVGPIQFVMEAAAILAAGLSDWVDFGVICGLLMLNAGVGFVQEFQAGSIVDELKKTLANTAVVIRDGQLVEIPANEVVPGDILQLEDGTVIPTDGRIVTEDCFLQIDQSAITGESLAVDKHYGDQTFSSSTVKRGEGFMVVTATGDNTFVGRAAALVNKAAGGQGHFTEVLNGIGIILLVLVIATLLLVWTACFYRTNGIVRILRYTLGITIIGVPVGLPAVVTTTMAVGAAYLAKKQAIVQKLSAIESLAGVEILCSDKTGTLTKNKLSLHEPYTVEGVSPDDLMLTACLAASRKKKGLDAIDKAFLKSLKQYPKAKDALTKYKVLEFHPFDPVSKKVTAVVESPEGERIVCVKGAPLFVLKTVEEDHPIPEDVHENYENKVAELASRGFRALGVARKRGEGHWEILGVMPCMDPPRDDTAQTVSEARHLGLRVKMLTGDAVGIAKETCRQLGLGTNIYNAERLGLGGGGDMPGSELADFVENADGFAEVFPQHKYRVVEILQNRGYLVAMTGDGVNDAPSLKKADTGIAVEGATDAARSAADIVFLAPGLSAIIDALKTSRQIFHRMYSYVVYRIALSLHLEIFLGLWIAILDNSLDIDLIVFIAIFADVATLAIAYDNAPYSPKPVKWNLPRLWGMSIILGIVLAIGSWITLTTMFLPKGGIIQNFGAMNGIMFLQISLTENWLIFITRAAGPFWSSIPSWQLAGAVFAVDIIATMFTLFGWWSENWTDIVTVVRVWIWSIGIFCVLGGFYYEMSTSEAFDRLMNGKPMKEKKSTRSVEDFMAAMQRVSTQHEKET
Method: The compound libraries were purchased from Enamine Ltd, Ukraine and Chembridge Corp, USA. Library screening was performed in 96 well plates format and each compound was screened in the ATP hydrolysis assay at a final concentration of 20 μM. DMSO was used to determine the maximal ATPase activity and a blank with ATP in absence of Pma1 protein was used to determine the level of spontaneous ATP hydrolysis and used to determine background level. The percentage of compound inhibition was evaluated by subtracting the blank from each data point and normalizing to maximal ATP hydrolysis activity. […] Pma1 inhibitory hit compounds (IC50 <20 μM) with antifungal activity on both S. cerevisiae and C. albicans (MIC <100 μM) were re-purchased and re-evaluated to confirm the potency and identity of the compound.
Plasma membranes containing Pma1 were isolated from Saccharomyces cerevisiae RS72 cells containing the full-length cDNA of the S. cerevisiae plasma membrane H^+-ATPase isoform PMA1 under control of the PMA1 promoter as described.
as §1

[3] = system: Candida krusei ATCC 6258; assay: Fungal growth inhibition, C. krusei; type: cell-based; conditions: Pichia kudriavzevii, ATCC6258; MIC defined as 50% growth inhibition, 24 h, n = 3–6
Text: Fungal isolates were purchased from American Type Culture Collection, except for C. glabrata strain Cg003, which was kindly provided by Julius Subik, Comenius University in Bratislava, Slovak Republic. Cg003 is a clinical isolate, characterized to be resistant to fluconazole and itraconazole due to overexpression of the multidrug resistance efflux pumps Cdr1p and Cdr2p. Saccharomyces cerevisiae (ATCC 9763), Candida albicans (ATCC 90028), Candida albicans (SC5314), Candida glabrata (ATCC 90030), Candida glabrata (Cg003) and Candida krusei (ATCC 6258) were grown in Sabouraud broth (40 g/L D-glucose, 10 g/L peptone, pH 5.6) or YPD (10 g/L yeast extract, 20 g/L Bacto-peptone, 20 g/L glucose) medium to mid log phase, aliquoted into 20% (v/v) glycerol and cryopreserved as stocks at -80°C. For each growth assay, cells from these stocks were diluted in sterile water to OD600 = 0.025, which corresponds to a final starting inoculum of 0.5–2.5 x 10^5 CFU/mL. Growth assays were carried out by pipetting 3 μL compound dissolved in DMSO, 100 μL cell suspension and 97 μL 2 x RPMI media (20.8 g/L RPMI-1640 (Sigma-Aldrich catalog number R6504) 330 mM MOPS, 36 g/L glucose) into a microtiter plate and incubating for 24 h at 34°C, followed by OD measurement at 490 nm. The minimum inhibitory concentration (MIC) was defined as 50% growth inhibition of the microorganism as this measurement best represented the antifungal activity of the compounds. Standard errors were typically below 5%.

[4] = system: HepG2 cells; assay: Hep G2 viability assay (XTT); type: cell-based, human; conditions: for EC50: Homo sapiens, HepG2 proliferation, 72 h, XTT; for Fungal growth inhibition versus HepG2 proliferation (in words): comparison of MIC and HepG2 EC50
Method: In each well of a 96 well tissue culture plate (Greiner, catalog number GR-655180) 10,000 human hepatocyte HepG2 cells (Sigma-Aldrich, catalog number 85011430) were plated in 200 μL growth media (EMEM (Sigma-Aldrich, catalog number M2279), 2 mM L-Glutamine (Biological Industries, catalog number 03-020-1B), 1% non-essential amino acids (Biosera, catalog number XC-E1154/100), 10% fetal bovine serum (Biological Industries, catalog number BI-04-007-1A)), and incubated overnight at 37°C and 5% CO2. The following day, fresh growth media plus 2 μL compound in DMSO was added. The plate was incubated for a further 72 h at 37°C and 5% CO2. The media was replaced with 100 μL freshly prepared 0.5 mg/mL XTT sodium salt solution (Sigma-Aldrich, catalog number X4251) in RPMI-1640 (Sigma-Aldrich, catalog number R7509) with 3.83 μg/mL phenazine methosulfate (Sigma-Aldrich, catalog number P9625) and incubated 2–3 h at 37°C and 5% CO2. The color reaction was measured on a Victor X5 plate reader (Perkin-Elmer) at OD450, and the half maximal effective concentration (EC50) was calculated indicating the potency of tetrahydrocarbazole derivatives to inhibit HepG2 cell growth. Tamoxifen (Sigma-Aldrich, catalog number 85256) was used as a positive control compound while DMSO served as a negative control.

[5] = ATP hydrolysis IC50 Saccharomyces cerevisiae Pma1, racemic compounds, n = 3
[6] = Pma1 IC50, Pma1 species not specified

`NC1CCCc2c1[nH]c1cc(OC(F)(F)F)ccc21` (stereo not shown) [Compound 4] was tested, and the IC50 [1] was 37.2 ± 13.6 µM, the IC50 [2, 5] was 75 ± 3.2 µM and the “Pma1 inhibition (in words)” value [2] was “weak inhibitors of Pma1”. The MIC [3] was 66 ± 16 µM (≈ 17.8 µg/mL), the EC50 [4] was 3.5 ± 1.87 µM and the “Fungal growth inhibition versus HepG2 proliferation (in words)” value [4] was “more potent at inhibiting HepG2 proliferation than fungal growth”.

With `CN1CCC(NC2CCCc3c2[nH]c2cc(OC(F)(F)F)ccc32)CC1` (stereo not shown) [Compound 5] the IC50 [1] was 132 ± 35.2 µM, the IC50 [2, 5] was 85.9 ± 10.3 µM and the “Pma1 inhibition (in words)” value [2] was “weak inhibitors of Pma1”. The MIC [3] was 150 µM (≈ 55.1 µg/mL), the EC50 [4] was 4.7 ± 3.4 µM and the “Fungal growth inhibition versus HepG2 proliferation (in words)” value [4] was “more potent at inhibiting HepG2 proliferation than fungal growth”.

For `FC(F)(F)Oc1ccc2c3c([nH]c2c1)C(NCc1ccc(Cl)cc1)CCC3` (stereo not shown) [Compound 6], the IC50 [1] was 0.72 ± 0.3 µM, the IC50 [2, 5] was 2.79 ± 0.36 µM and the “Selectivity among P-type ATPases (in words)” value [2] was “more potent in inhibiting SERCA and the Na^+,K^+-ATPase than Pma1”. The MIC [3] was 7.5 µM (≈ 2.96 µg/mL), the EC50 [4] was 16.7 ± 3.54 µM and the “Fungal growth inhibition versus HepG2 proliferation (in words)” value [4] was “inhibited fungal growth more strongly than HepG2 proliferation”.

For `FC(F)(F)Oc1ccc2c3c([nH]c2c1)C(NCc1ccc(Br)cc1)CCC3` (stereo not shown) [Compound 7], the IC50 [1] was 0.38 ± 0.12 µM, the IC50 [2, 5] was 2.43 ± 0.39 µM and the “Selectivity among P-type ATPases (in words)” value [2] was “more potent in inhibiting SERCA and the Na^+,K^+-ATPase than Pma1”. The MIC [3] was 4.7 µM (≈ 2.06 µg/mL) and the EC50 [4] was 14.9 ± 0.26 µM.

With `FC(F)(F)Oc1ccc2c3c([nH]c2c1)C(NCCOc1ccc(Cl)cc1)CCC3` (stereo not shown) [Compound 8] the IC50 [1] was 1.07 ± 0.38 µM, the IC50 [2, 5] was 3.57 ± 1.81 µM and the “Selectivity among P-type ATPases (in words)” value [2] was “more potent in inhibiting SERCA and the Na^+,K^+-ATPase than Pma1”. For the same compound, the MIC [3] was 12.9 ± 9.4 µM (≈ 5.48 µg/mL), the EC50 [4] was 13.6 ± 1.33 µM and the “Fungal growth inhibition versus HepG2 proliferation (in words)” value [4] was “inhibited fungal growth more strongly than HepG2 proliferation”.

`FC(F)(F)Oc1ccc2[nH]c3c(c2c1)CCCC3NCc1ccc(-c2ccccn2)cc1` (stereo not shown) [Compound 9] showed an IC50 [1] of 9.76 ± 4.47 µM, an IC50 [2, 5] of 4.73 ± 2.23 µM and an IC50 [2, 6] of 5 to 7 µM. The MIC [3] was 7.5 ± 4.8 µM (≈ 3.28 µg/mL), the EC50 [4] was 12.5 ± 3.68 µM and the “Fungal growth inhibition versus HepG2 proliferation (in words)” value [4] was “inhibited fungal growth more strongly than HepG2 proliferation”.

With `Clc1ccc2[nH]c3c(c2c1)CCCC3NCc1ccc(-c2ccccc2)cc1` (stereo not shown) [Compound 10] the IC50 [1] was 5.5 ± 2.74 µM, the IC50 [2, 5] was 7 µM and 6.69 µM and the IC50 [2, 6] was 5 to 7 µM. The MIC [3] was 6.8 ± 4.6 µM (≈ 2.63 µg/mL), the EC50 [4] was 18.6 ± 1.12 µM and the “Fungal growth inhibition versus HepG2 proliferation (in words)” value [4] was “inhibited fungal growth more strongly than HepG2 proliferation”.

For `Cn1c2c(c3cc(Cl)ccc31)CCCC2NCc1ccc(-c2ccccc2)cc1` (stereo not shown) [Compound 11], the IC50 [1] was greater than 20 µM, the IC50 [2, 5] was greater than 20 µM and the “Pma1 inhibition (in words)” value [2] was “no activity against Pma1; also recorded: no inhibitory effect on Pma1”. For the same compound, the MIC [3] was greater than 20 µM and the EC50 [4] was greater than 20 µM.

For `CN(Cc1ccc(-c2ccccc2)cc1)C1CCCc2c1[nH]c1ccc(Cl)cc21` (stereo not shown) [Compound 12], the IC50 [1] was 11.8 ± 6.8 µM, the IC50 [2, 5] was greater than 20 µM and the “Pma1 inhibition (in words)” value [2] was “no activity against Pma1; also recorded: no inhibitory effect on Pma1”. For the same compound, the “Selectivity among P-type ATPases (in words)” value [2] was “weakly selective for Na^+,K^+-ATPase only”, the MIC [3] was greater than 20 µM and the EC50 [4] was greater than 20 µM.
